Values joined by “and” are separate entries in the source; they are usually repeats but may differ in a detail not shown here. Equal values may be shown once.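 Compound exposure: 48 hours, 5 concentrations, 96-well plates. GI50 marks 50% less growth. The concentration for full growth arrest is given as TGI.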
Experiments:
Assay in all cases: growth of human tumour cells (NCI), 48 h
[1] = system: OVCAR-5 ovarian
[2] = system: KM12 colon
[3] = system: UACC-257 melanoma
[4] = system: PC-3 prostate
[5] = system: RPMI-8226 leukemia
[6] = system: TK-10 renal
[7] = system: SF-268 CNS
[8] = system: HCT-15 colon
[9] = system: M14 melanoma
[10] = system: HCT-116 colon

Structure (SMILES)	TGI [1]	TGI [2]	TGI [3]	TGI [4]	TGI [5]	TGI [6]	TGI [7]	TGI [8]	TGI [9]	TGI [10]	GI50 [2]	GI50 [3]	GI50 [4]	GI50 [5]	GI50 [6]	GI50 [7]	GI50 [10]	GI50 [8]	GI50 [9]	GI50 [1]
O=C1C=CC(O)C2C1CC13SSC4(CC5C(=O)C=CC(O)C5N4C1=O)C(=O)N23 (stereo not drawn)	0.571 µM	0.342 µM	0.768 µM	1.13 µM	0.093 µM	1.81 µM	5.85 µM	0.794 µM	0.752 µM	–	–	–	–	–	–	–	–	–	–	–
CCOC(=O)C1=C(Nc2ccc(Cl)c(Cl)c2)OC/C1=N\NS(=O)(=O)c1ccc(C)cc1	> 100 µM	> 100 µM	61.7 µM	–	64.9 µM	> 100 µM	> 100 µM	–	> 100 µM	> 100 µM	–	–	–	–	–	–	–	–	–	–
Cc1cc(Cl)ccc1C1OC(=O)c2c1ccc1ccccc21 (stereo not drawn)	> 100 µM	> 100 µM	> 100 µM	–	> 100 µM	> 100 µM	> 100 µM	> 100 µM	> 100 µM	> 100 µM	–	–	–	–	–	–	–	–	–	–
C=C1[C@@H]([C@@]2(C)C=CC(=O)C(C)(C)[C@@H]2CC(=O)OC)CC[C@@]2(C)C(c3ccoc3)OC(=O)[C@H]3O[C@]132 (stereo partly drawn)	> 100 µM	> 100 µM	> 100 µM	> 100 µM	–	> 100 µM	> 100 µM	> 100 µM	> 100 µM	> 100 µM	–	–	–	–	–	–	–	–	–	–
O=C(NS(=O)(=O)c1ccccc1)C(Cc1ccccc1)C(Cc1ccccc1)C(=O)NS(=O)(=O)c1ccccc1 (stereo not drawn)	> 100 µM	> 100 µM	> 100 µM	–	> 100 µM	> 100 µM	> 100 µM	–	> 100 µM	> 100 µM	–	–	–	–	–	–	–	–	–	–
CC1=C(/C=C/C(C)=C/C=C/C(C)=C/CO)C(C)(C)CCC1	61.2 µM	> 100 µM	84.4 µM	> 100 µM	–	–	52 µM	> 100 µM	35.7 µM	–	–	–	–	–	–	–	–	–	–	–
Nn1c(N=Nc2c(O)[nH]c3c(Cl)cc(Cl)cc23)n[nH]c1=S	> 100 µM	> 100 µM	> 100 µM	–	> 100 µM	> 100 µM	> 100 µM	> 100 µM	> 100 µM	> 100 µM	–	–	–	–	–	–	–	–	–	–
COc1ccc2c(c1OC)C(=O)c1cnccc1C2=O	> 100 µM	> 100 µM	> 100 µM	–	> 100 µM	> 100 µM	–	> 100 µM	> 100 µM	> 100 µM	–	–	–	–	–	–	–	–	–	–
Cc1cccc(C(C)(C)C)c1NC(=O)CC1Sc2ccccc2NC1=O (stereo not drawn)	> 100 µM	> 100 µM	> 100 µM	–	46 µM	> 100 µM	> 100 µM	–	> 100 µM	45.1 µM	–	–	–	–	–	–	–	–	–	–
O=C1C=CC(CC(=O)c2ccc3ccccc3c2)O1 (stereo not drawn)	41.5 µM	31.4 µM	> 100 µM	–	–	69.8 µM	39.9 µM	50.4 µM	93.9 µM	32.3 µM	–	–	–	–	–	–	–	–	–	–
O=[N+]([O-])c1cccc(C2=NOC3C4CCC(C4)C23)c1 (stereo not drawn)	> 100 µM	> 100 µM	> 100 µM	–	> 100 µM	> 100 µM	> 100 µM	> 100 µM	> 100 µM	> 100 µM	–	–	–	–	–	–	–	–	–	–
COc1ccc(Nc2cc(C)nc(N3CCN(c4ccnc5cc(Cl)ccc45)CC3)n2)cc1	–	31.6 µM	> 100 µM	> 100 µM	8.91 µM	47.6 µM	> 100 µM	> 100 µM	5.32 µM	3.24 µM	1.64 µM	3.34 µM	2.21 µM	2.18 µM	3.64 µM	4.7 µM	1.34 µM	2.06 µM	1.75 µM	–
O=C(O)c1ccccc1NC(=O)C1CCCCC1	> 100 µM	> 100 µM	> 100 µM	–	> 100 µM	> 100 µM	> 100 µM	> 100 µM	> 100 µM	> 100 µM	–	–	–	–	–	–	–	–	–	–
CCC(Oc1ccc(OC)c2ccccc(=O)c12)C(=O)O (stereo not drawn)	> 100 µM	> 100 µM	> 100 µM	–	> 100 µM	> 100 µM	> 100 µM	> 100 µM	> 100 µM	> 100 µM	–	–	–	–	–	–	–	–	–	–
O=C(Nc1ccn(CCI)c(=O)n1)c1ccccc1	> 100 µM	> 100 µM	> 100 µM	–	> 100 µM	> 100 µM	> 100 µM	> 100 µM	> 100 µM	> 100 µM	–	–	–	–	–	–	–	–	–	–
CCCCCCC(/C=N/O)C(C)(O)CCC (stereo not drawn)	> 100 µM	> 100 µM	> 100 µM	–	> 100 µM	> 100 µM	> 100 µM	> 100 µM	> 100 µM	> 100 µM	–	–	–	–	–	–	–	–	–	–
Oc1ccc(Cl)cc1CNc1nc2ccccc2[nH]1	34.4 µM	27 µM	29.4 µM	23.3 µM	49.5 µM	31.2 µM	30.2 µM	26.1 µM	–	24.7 µM	13.3 µM	14.7 µM	9.75 µM	10 µM	15.7 µM	14.3 µM	12.1 µM	11.5 µM	–	17.8 µM
COC(=O)C1=CC2OC1(C)CCC2=O (stereo not drawn)	> 100 µM	> 100 µM	> 100 µM	–	> 100 µM	> 100 µM	> 100 µM	> 100 µM	> 100 µM	> 100 µM	–	–	–	–	–	–	–	–	–	–
O=C1c2nc3n(c2C(=O)c2c1nc1n2CCC1)CCC3	30.7 µM	17 µM	5.6 µM and 5.72 µM	–	> 100 µM	> 77.2 µM	32 µM	19.2 µM	4.65 µM	9.22 µM	5.63 µM	2.47 µM	–	9.83 µM	–	–	4.29 µM	–	4.88 µM	–
O=C(NO)c1ccc(O)c(O)c1	> 100 µM	> 100 µM	> 100 µM	–	> 100 µM	> 100 µM	> 100 µM	> 100 µM	> 100 µM	> 100 µM	–	–	–	–	–	–	–	–	–	–
O=S(=O)(C/C(=N\O)c1ccccc1)c1ccccc1	> 100 µM	> 100 µM	> 100 µM	–	> 100 µM	> 100 µM	> 100 µM	> 100 µM	> 100 µM	> 100 µM	–	–	–	–	–	–	–	–	–	–
CCCNc1nc2ccccc2c2c1S(=O)(=O)c1ccc(Cl)cc1C2=O	–	> 50 µM	> 50 µM	> 50 µM	2.86 µM	> 50 µM	> 50 µM	> 50 µM	> 50 µM	> 50 µM	1.49 µM	2.15 µM	0.225 µM	0.345 µM	3.14 µM	1.35 µM	0.425 µM	0.728 µM	0.625 µM	–
